Data published in US12565504B2, “Spirocyclic O-glycoprotein-2-acetamido-2-deoxy-3-d-glucopyranosidase inhibitors” (BIOGEN MA INC., priority 2019, dated 2026).
Like-named read-outs stand apart in the source and are kept apart here.

Legend:
[1] = target: Recombinant full length human OGA enzyme (Homo sapiens (Human), UniProt O60502); experiment: OGA Enzyme Inhibition Biochemical Assay; settings: 1 nM OGA, 100 μM 4-MUGlcNAc, 90 minutes, pH 6.4
Outline: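 Full-length recombinant human OGA with fluorogenic 4-MUGlcNAc in McIlvaine buffer pH 6.4, 0.01% BSA; 90 min at room temperature, glycine pH 10 quench, fluorescence Ex 355/Em 460 nm. 10-point, 4-fold dilution from 20 μM; 4-parameter variable-slope fit.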

[2] = rat, microsomes, 1 μM, pH 7.4
Description: (§1) Aliquots (40 uL) at 0, 5, 10, 15, 25 and 40 minutes post NADPH addition (or compound addition for reactions in absence of NADPH) were transferred into individual 96-well plate wells containing 40 ng/ml of 8-cyclopently-1,3-dipropylxanthine (CPDPX, internal standard) in 160 uL acetonitrile:methanol (1:1 v/v).
(§2) The LC/MS/MS system consisted of an ultra high throughput RapidFire® 300 system (Agilent Technologies, Santa Clara, CA) coupled to a Triple Quad 5500 mass spectrometer (ABSciex, Foster City, CA). Sample load and wash were performed on a RapidFire® C4 cartridge using 0.1% formic acid in water as mobile phase A and sample elution using 0.1% formic acid in acetonitrile:methanol (1:1 v/v) as mobile phase B.
(§3) CLint, app (apparent intrinsic clearance) was calculated using the following equation for microsome stability.
(§4) [formula] • where “a” represents 45 grams of liver/kg of body weight for rat. • CLint,app (apparent intrinsic clearance) was calculated using the following equation for hepatocyte stability: • CLhep (hepatic clearance) was calculated using the following equation for microsomes
(§5) [formula] • using 55 mL/minute/kg as Qh (hepatic blood flow) for rat.

[3] = system: P-gp (MDR1); experiment: MDR1-MDCK Efflux Ratio Assay; type: in vitro ADME; settings: dog, MDR1-MDCK cells, pH 7.4, read-out: MDR1-MDCK Efflux Ratio (B-A/A-B)
Description: MDR1-MDCK cell monolayers were grown to confluence on microporous polyester membranes in 96-well Corning insert plates. The permeability assay buffer was Hanks' Balanced Salt Solution containing 10 mM HEPES at pH of 7.4. Loperamide (1 μM) was used as a positive control P-gp substrate. Propranolol and Bestatin (1 μM) were used as high and low permeability comparators, respectively.
Test compounds or positive control P-gp substrate/permeability comprators were added to respective apical and basolateral chambers for bidirectional assessment of permeability. Receiver buffer (transport buffer supplemented with 1% bovine serum albumin) was added to respective receiver chambers. MDR1-MDCK cells were incubated with test compounds at 37° C. with 5% CO2 for 2 hr. Samples were collected from the donor chamber at both 0 and 120 minutes, and from the receiver chamber at 120 minutes. Test and control compound concentrations were determined using LC-MS/MS analysis. Each determination was performed in triplicate.

[4] = target: OGA (S400 O-GLCNAC) (Homo sapiens (Human), UniProt O60502); experiment: Cellular OGA-Tau MSD Assay; type: cell-based; settings: HEK-293T cells transfected with OGT and Tau-V5; Tau-S400-GlcNAc MSD readout
Outline: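 HEK-293T cells transiently co-expressing OGT and Tau-V5 were treated overnight at 37° C with compounds (top 1 uM, 3-fold, 10 points). Lysate Tau was captured on V5 antibody, and S400-GlcNAc was detected by MSD electrochemiluminescence. IC50 was derived from a 4-parameter fit of normalized % activity.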

[5] = Rat Liver Microsome Stability Assay; settings: rat liver microsomes 0.5 mg/mL, compound 1 μM; Qh 55 mL/minute/kg
Description: as §1, §2, §3, §4, §5

Recombinant full length human OGA enzyme, sequence (O60502 whole entry): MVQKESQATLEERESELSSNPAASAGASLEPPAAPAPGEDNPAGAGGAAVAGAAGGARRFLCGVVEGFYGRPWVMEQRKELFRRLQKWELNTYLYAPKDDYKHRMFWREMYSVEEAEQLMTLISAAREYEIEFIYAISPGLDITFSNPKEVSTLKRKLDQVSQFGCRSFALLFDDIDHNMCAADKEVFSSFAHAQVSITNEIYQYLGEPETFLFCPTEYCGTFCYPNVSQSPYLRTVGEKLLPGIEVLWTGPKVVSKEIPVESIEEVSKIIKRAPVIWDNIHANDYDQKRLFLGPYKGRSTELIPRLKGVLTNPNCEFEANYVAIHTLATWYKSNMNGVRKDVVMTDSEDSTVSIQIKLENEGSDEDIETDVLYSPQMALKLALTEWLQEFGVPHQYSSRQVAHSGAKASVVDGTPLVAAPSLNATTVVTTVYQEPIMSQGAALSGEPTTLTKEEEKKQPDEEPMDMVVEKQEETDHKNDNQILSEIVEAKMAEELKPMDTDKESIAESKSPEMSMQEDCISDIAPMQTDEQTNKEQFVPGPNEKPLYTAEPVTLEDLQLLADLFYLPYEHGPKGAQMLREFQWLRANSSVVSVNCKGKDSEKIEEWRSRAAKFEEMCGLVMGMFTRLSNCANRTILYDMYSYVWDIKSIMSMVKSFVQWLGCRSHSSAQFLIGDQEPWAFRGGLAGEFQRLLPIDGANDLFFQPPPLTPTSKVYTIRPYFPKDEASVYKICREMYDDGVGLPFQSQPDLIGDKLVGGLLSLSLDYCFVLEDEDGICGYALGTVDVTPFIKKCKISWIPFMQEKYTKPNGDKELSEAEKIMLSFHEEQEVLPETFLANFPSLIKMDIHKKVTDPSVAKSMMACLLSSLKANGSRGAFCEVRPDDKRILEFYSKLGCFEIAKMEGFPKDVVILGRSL
OGA (S400 O-GLCNAC), sequence (O60502 whole entry): as above

Row | SMILES | IC50 [1] [nM] | efflux ratio at 2 hr [3] | IC50 [4] [nM] | RLM % Qh (%) [5] [%] | RLM % Qh (%) [2] [%]
1 | CC(=O)Nc1nc(F)c(CN2CCC3(Cc4ncccc4O3)C2)s1 (stereo not shown) [Example 91, N-(5-((3H-spiro[furo[3,2-b]pyridine-2,3′-pyrrolidin]-1′-yl)methyl)-4-fluorothiazol-2-yl)acetamide] | 70 |  |  |  | 45
2 | CC(=O)Nc1ncc(CN2C[C@@]3(Cc4cc(C(F)(F)F)ncc4O3)C[C@@H]2C)s1 [Example 22, N-(5-(((2R,5′S)-5′-Methyl-5-(trifluoromethyl)-3H-spiro[furo[2,3-c]pyridine-2,3′-pyrrolidin]-1′-yl)methyl)thiazol-2-yl)acetamide] | 17 | 11 | 25 | 39 | 
3 | CC(=O)Nc1nc(F)c(CN2C[C@@]3(Cc4cc(N5CCN(C)CC5)ncc4O3)C[C@@H]2C)s1 [Example 45, N-(4-Fluoro-5-(((2R,5′S)-5′-methyl-5-(4-methylpiperazin-1-yl)-3H-spiro[furo[2,3-c]pyridine-2,3′-pyrrolidin]-1′-yl)methyl)thiazol-2-yl)acetamide] | < 1 | 94 | 3 | 65 | 
4 | CC(=O)Nc1nc(F)c(CN2CCC3(Cc4cnc(Cl)cc4O3)C2)s1 (stereo not shown) [Example 7, N-(5-((6-Chloro-3H-spiro[furo[3,2-c]pyridine-2,3′-pyrrolidin]-1′-yl)methyl)-4-fluorothiazol-2-yl)acetamide] | 54 | 6.7 | 301 | 46 | 
5 | CC(=O)Nc1nc(F)c(CN2C[C@@]3(Cc4cc(N5C[C@@H](C)O[C@H](C)C5)ncc4O3)C[C@@H]2C)s1 [Example 41, N-(5-(((2R,5′S)-5-((2R,6R)-2,6-Dimethylmorpholino)-5′-methyl-3H-spiro[furo[2,3-c]pyridine-2,3′-pyrrolidin]-1′-yl)methyl)-4-fluorothiazol-2-yl)acetamide] | < 1 | 19.5 | 8 | 65 | 
6 | CC(=O)Nc1ncc(CN2C[C@@]3(Cc4cc(N5C[C@H](C)O[C@@H](C)C5)ncc4O3)C[C@@H]2C)s1 [Example 42, N-(5-(((2R,5′S)-5-((2S,6S)-2,6-Dimethylmorpholino)-5′-methyl-3H-spiro[furo[2,3-c]pyridine-2,3′-pyrrolidin]-1′-yl)methyl)thiazol-2-yl)acetamide] | 1.9 | 25 | 14 | 66 | 
7 | CC(=O)Nc1ncc(CN2C[C@@]3(Cc4cc(N5C[C@@H](C)O[C@@H](C)C5)ncc4O3)C[C@@H]2C)s1 [Example 38, N-(5-(((2R,5′S)-5-((2R,6S)-2,6-Dimethylmorpholino)-5′-methyl-3H-spiro[furo[2,3-c]pyridine-2,3′-pyrrolidin]-1′-yl)methyl)thiazol-2-yl)acetamide] | 1.2 | 29.5 | 9.9 | 42 | 
8 | CC(=O)Nc1nc(F)c(CN2C[C@@]3(Cc4cc(N5C[C@H](C)O[C@@H](C)C5)ncc4O3)C[C@@H]2C)s1 [Example 43, N-(5-(((2R,5′S)-5-((2S,6S)-2,6-Dimethylmorpholino)-5′-methyl-3H-spiro[furo[2,3-c]pyridine-2,3′-pyrrolidin]-1′-yl)methyl)-4-fluorothiazol-2-yl)acetamide] | < 1 | 17.5 | 8 | 75 | 
9 | CC(=O)Nc1nc(F)c(CN2CCCC3(C2)OCc2c3cc[nH]c2=O)s1 (stereo not shown) [Example 86, N-(4-Fluoro-5-((4-oxo-4,5-dihydro-3H-spiro[furo[3,4-c]pyridine-1,3′-piperidin]-1′-yl)methyl)thiazol-2-yl)acetamide] | 14.5 | 32.6 | 138 | 37 | 
10 | CC(=O)Nc1nc(F)c(CN2C[C@@]3(Cc4cc(N5C[C@@H](C)O[C@@H](C)C5)ncc4O3)C[C@@H]2C)s1 [Example 39, N-(5-(((2R,5′S)-5-((2R,6S)-2,6-Dimethylmorpholino)-5′-methyl-3H-spiro[furo[2,3-c]pyridine-2,3′-pyrrolidin]-1′-yl)methyl)-4-fluorothiazol-2-yl)acetamide] | 0.5 | 9.7 | 4.9 | 52 | 

Continued, in another order:

Row | IC50 [1] [nM] | efflux ratio at 2 hr [3] | IC50 [4] [nM] | RLM % Qh (%) [5] [%] | SMILES | RLM % Qh (%) [2] [%]
11 | 65 | 7.9 | 9 | 93 | COc1nccc2c1COC21C[C@H](C)N(Cc2cnc(NC(C)=O)s2)C1 (stereo partly drawn) [Example 78, N-(5-(((5′S)-4-Methoxy-5′-methyl-3H-spiro[furo[3,4-c]pyridine-1,3′-pyrrolidin]-1′-yl)methyl)thiazol-2-yl)acetamide] | 
12 | 360 | 3.1 | > 1000 | 78 | COc1cccc2c1OC1(CCN(Cc3sc(NC(C)=O)nc3F)C1)C2 (stereo not shown) [Example 4, N-(4-Fluoro-5-((7-methoxy-3H-spiro[benzofuran-2,3′-pyrrolidin]-1′-yl)methyl)thiazol-2-yl)acetamide] | 
13 | 1.1 | 2.5 | 15.1 | 78 | COc1nccc2c1COC21CCCN(Cc2sc(NC(C)=O)nc2F)C1 (stereo not shown) [Example 81, N-(4-Fluoro-5-((4-methoxy-3H-spiro[furo[3,4-c]pyridine-1,3′-piperidin]-1′-yl)methyl)thiazol-2-yl)acetamide] | 
14 | 1 | 6.5 | 12 | 75 | CC(=O)Nc1nc(F)c(CN2C[C@@]3(Cc4cc(C5CC5)ncc4O3)C[C@@H]2C)s1 [Example 24, N-(5-(((2R,5′S)-5-Cyclopropyl-5′-methyl-3H-spiro[furo[2,3-c]pyridine-2,3′-pyrrolidin]-1′-yl)methyl)-4-fluorothiazol-2-yl)acetamide] | 
15 | 13 | 26 | 57 | 78 | CC(=O)Nc1nc(F)c(CN2CC3(C[C@@H]2C)OCc2cccnc23)s1 (stereo partly drawn) [Example 63, N-(4-Fluoro-5-(((5′S)-5′-methyl-5H-spiro[furo[3,4-b]pyridine-7,3′-pyrrolidin]-1′-yl)methyl)thiazol-2-yl)acetamide] | 
16 | 1.4 | 12 | 34 | 16 | CC(=O)Nc1nc(F)c(CN2C[C@@]3(Cc4cc(=O)n(C)cc4O3)C[C@@H]2C)s1 [Example 48, N-(5-(((2R,5′S)-5′,6-Dimethyl-5-oxo-5,6-dihydro-3H-spiro[furo[2,3-c]pyridine-2,3′-pyrrolidin]-1′-yl)methyl)-4-fluorothiazol-2-yl)acetamide] | 
17 | 3 | 5.6 | 5 | 51 | CC(=O)Nc1nc(F)c(CN2C[C@@]3(Cc4cc(C(F)F)ncc4O3)C[C@@H]2C)s1 [Example 26, N-(5-(((2R,5′S)-5-(Difluoromethyl)-5′-methyl-3H-spiro[furo[2,3-c]pyridine-2,3′-pyrrolidin]-1′-yl)methyl)-4-fluorothiazol-2-yl)acetamide] | 
18 | 55 | 17.7 | 62 | 58 | COc1cc2c(cn1)[C@]1(C[C@H](C)N(Cc3cnc(NC(C)=O)s3)C1)OC2 (single isomer, unassigned) [Example 76-a] | 
